{"source": "patent US8951529B2", "about": "“Methods of using small compounds to enhance myeloid derived suppressor cell function for treating autoimmune diseases” (Icahn School of Medicine at Mount Sinai, priority 2009, dated 2015)", "key": {"IRF-3": {"tested_on": "IRF-3", "conditions": "MDSCs stimulated with LPS for 2 hours, FIG. 9C", "excerpt": "Actin was used as a loading control. Primary antibodies were anti-NFκB, anti-phospho-IRF3 (pIRF3), and anti-β-actin (Cell Signaling Technologies, Danvers, Mass.)."}, "normal CD115+ monocytes": {"tested_on": "normal CD115+ monocytes", "experiment": "Normal monocyte assay: Treg induction in co-culture with normal monocytes", "assay_type": "cell-based, mouse", "conditions": "monocytes:CD4 OTII TCR splenocytes 1:4, five days, FIG. 2", "excerpt": "CD115+ MDSCs and normal CD115+ monocytes were isolated from the bone marrows of tumor-bearing and naive Balb/c mice, respectively, and were co-cultured with CD4 OTII TCR transgenic splenocytes at a ratio of 1:4 in the absence or presence of GA, SP600125, or both.\nTo verify whether the enhancement of suppressive activities (suppression of T-cell proliferation and Treg cell induction) by GA and SP600125 is specific to MDSCs, the Treg cell inducing activity of normal CD115+ monocytes from naive mice was analyzed in the presence of GA and SP600125."}, "Gr-1+CD115+ MDSCs [1]": {"tested_on": "Gr-1+CD115+ MDSCs", "experiment": "Prolongation of Treg cell inducing activity of pre-treated MDSCs", "assay_type": "cell-based, mouse", "conditions": "96 hours pre-treatment, then 5 days co-culture, FIG. 4B", "method": "It was further investigated whether the delay of MDSC differentiation correlated with the prolongation of the Treg cell inducing activity mediated by MDSCs. Purified Gr-1+CD115+ MDSCs from tumor-bearing mice were left non-treated or treated with SP600125, GA, or a combination of both for 0, 48, and 96 hours followed by co-culture with CD4 HA TCR transgenic for an additional 5 days. […] The percentages of Treg cell subpopulations were determined by flow cytometry.\nIn the absence of treatment with GA or SP00125, the Treg cell inducing activity of MDSCs gradually waned over the period of 4-day culture (FIG. 4B)."}, "DSS-induced colitis": {"tested_on": "DSS-induced colitis", "experiment": "DSS-induced colitis in vivo model", "design": "species or system C57BL/6 mice", "excerpt": "In certain aspects, the invention is related to the treatment of IBDs. Mouse models of IBD are well known in the art, and may be used to model human IBDs. For example, dextran sodium sulfate (DSS) may be administered to mice to induce IBD. In this model, mice are fed with water containing 3.5% DSS from day 0 to day 11. Following treatment, mice develop colitis. The severity of colitis is quantified (assigned a clinical score) by assessing stool consistency, bleeding, and weight loss, which ranges from 0 (healthy) to 4 (maximal severity). Histologically, DSS produces submucosal erosions, ulceration, inflammatory cell infiltration and crypt abscess as well as epithelioglandular hyperplasia. […] [Kawada et al., 2007, World J. Gastroenterol. 13: 5581-5593; Okayasu et al., 1990, Gastroenterology 98:694-702]\nFor adoptive transfer of MDSCs, 5×10^6 purified MDSCs suspended in PBS were administered by intravenous infusion at day 0 and day 7.\nMice were left untreated or treated with sorted MDSCs (5×10^6 cells/mouse) alone or in combination with GA and/or SP600125 (Sigma-Aldrich), on the day of disease induction. […] The severity of colitis was quantitated as a clinical score by assessing stool consistency, bleeding, and weight loss, which ranges from 0 (healthy) to 4 (maximal severity). The clinical score (weight loss, stool consistency, and bleeding) of treated mice was assessed in a double-blind fashion.\nOn day 11 post-IBD induction, colon tissues from treated mice were removed, fixed in 3% formaldehyde, sectioned, and stained with H&E staining to determine the pathology score of colitis. To reflect the general condition of the mice, a disease activity index (DAI) was determined by an investigator blinded to the protocol by scoring the extent of body weight loss, stool guaiac positivity or gross bleeding, and stool consistency according to the method described in Murthy et al. (1993) “Treatment of Dextran Sulfate Sodium-Induced Murine Colitis by Intracolonic Cyclosporin,” Digest. […] Stool consistency and the degree of blood in stool were evaluated on the day when animals were killed. […]"}, "Gr-1+CD115+ MDSCs [2]": {"tested_on": "Gr-1+CD115+ MDSCs", "experiment": "MDSC differentiation assay (flow cytometry)", "assay_type": "cell-based, mouse", "conditions": "24 hours culture, FIG. 4A", "excerpt": "Gr-1+CD115+ MDSCs were sorted by MACS and cultured in the absence or presence of GA, SP600125, or both. Twenty-four hours later, viable cells were harvested and stained with anti-CD86, anti-CD80, anti-CD11c, anti-I-A, anti-F4/80, or isotype-matched control followed by flow cytometric analysis to assess MDSC differentiation.\nTo test whether differentiation of MDSCs can be inhibited or retarded by the treatment of GA, SP600125, or both, Gr-1+CD115+ MDSCs were sorted by MACS and cultured in the absence or presence of GA, SP600125, or both. Twenty-four (24) hours later, viable cells were harvested and stained with anti-CD86, anti-CD80, anti-CD11c, anti-I-A, anti-F4/80, or isotype-matched control followed by flow cytometric analysis. […] Treatment with GA or SP600125 impaired the spontaneous differentiation of MDSCs, as evidenced by the lower expressions of CD11c, MHC class II, co-stimulatory molecules, and F4/80."}}}
{"substance": "L-glutamic acid polymer with L-alanine, L-lysine and L-tyrosine, acetate (salt) [GA]", "values": [{"measurement": "IRF-3 activation induced by LPS", "setting": "IRF-3", "result": "inhibition"}, {"measurement": "percentage of CD4+CD25+Foxp3+ Treg cells in the co-culture with normal monocytes", "setting": "normal CD115+ monocytes", "result": "slightly increased"}, {"measurement": "Treg cell inducing activity of treated MDSCs on day 4", "setting": "Gr-1+CD115+ MDSCs [1]", "result": "still maintained a significant Treg cell inducing activity"}, {"measurement": "decrease in colonic length", "setting": "DSS-induced colitis; day 11, in comparison with naive healthy mice, FIG. 5C", "result": 45, "unit": "%"}, {"measurement": "IBD clinical score", "setting": "DSS-induced colitis; scale 0-4, 3.5% DSS day 0 to 11, GA s.c., SP600125 i.p. daily, MDSCs 5×10^6 i.v. days 0 and 7, FIG. 5A", "result": "did not significantly lower"}, {"measurement": "spontaneous differentiation of MDSCs (CD11c, MHC class II, co-stimulatory molecules, F4/80)", "setting": "Gr-1+CD115+ MDSCs [2]", "result": "impaired"}]}
